Data reported in patent US20070129344A1, “Bicyclic 6-alkylidene-penem beta-lactamase inhibitors and beta-lactam antibiotic combination: a broad spectrum antibiotic” (priority 2005, published 2007).
Counter-ions that a name gives are not always drawn.

How the values were obtained:
[1] = tested on: K. pn GC 6657 (TEM-1 + SHV-27); assay: MIC microbroth dilution; β-lactamase class A, A (ESBL); format: cell-based, K. pneumoniae; conditions: Klebsiella pneumoniae, Cefepime + 4 ug/ml Compound 2, read-out: MIC
Method: (§1) The in vitro activities of the antibiotics were determined by the microbroth dilution method as recommended by the National Committee for Clinical Laboratory Standards (NCCLS). (NCCLS. 2000. Methods for Dilution Antimicrobial Susceptibility Tests for Bacteria That Grow Aerobically; Approved Standards: M7-A5, vol. 19. National Committee for Clinical Laboratory Standards, Villanova, Pa.). Mueller-Hinton II broth (MHBII)(BBL Cockeysville, Md.), was used for the testing procedure. […]. The plates were incubated for 18-22 hours at 35° C. in ambient air.

[2] = tested on: K. pn GC 6494 (TEM-1 + SHV-5); assay: as above; format: cell-based, K. pneumoniae; conditions: Klebsiella pneumoniae, Cefepime + 4 ug/ml Compound 2, read-out: MIC
Method: as §1

[3] = tested on: K. pn GC 1963 (TEM-10 + SHV-1 + SHV-ESBL); assay: as above; format: cell-based, K. pneumoniae; conditions: Klebsiella pneumoniae, Cefepime + 4 ug/ml Compound 2, read-out: MIC
Method: as §1

[4] = tested on: E. coli GC 2015 (TEM-10 + SHV-1); assay: as above; format: cell-based; conditions: Escherichia coli, Cefepime + 4 ug/ml Compound 2, read-out: MIC
Method: as §1

[5] = tested on: E. coli GC 6260 (TEM-1 + SHV-5); assay: as above; format: cell-based; conditions: Escherichia coli, Cefepime + 4 ug/ml Compound 2, read-out: MIC
Method: as §1

[6] = tested on: E. coli GC 1499 (TEM-4 + TEM-1); assay: as above; format: cell-based; conditions: Escherichia coli, Cefepime + 4 ug/ml Compound 2, read-out: MIC
Method: as §1

[7] = tested on: E. coli GC 1695 (TEM-1 + TEM-10); assay: as above; format: cell-based; conditions: Escherichia coli, Cefepime + 4 ug/ml Compound 2, read-out: MIC
Method: as §1

[8] = tested on: E. coli GC 2146 (TEM-1; SHV-7); assay: as above; format: cell-based; conditions: Escherichia coli, Cefepime + 4 ug/ml Compound 2, read-out: MIC
Method: as §1

[9] = tested on: E. coli GC 5901 (TEM-1 and SHV-8); assay: as above; format: cell-based; conditions: Escherichia coli, Cefepime + 4 ug/ml Compound 2, read-out: MIC
Method: as §1

[10] = tested on: A. baumannii PT 9158 PTZ-R; assay: MIC microbroth dilution; β-lactamase class not determined; format: cell-based; conditions: Acinetobacter baumannii, PT9158PTZR, Cefepime + 4 ug/ml Compound 2, read-out: MIC
Method: as §1

[11] = tested on: A. baumannii PT 8321 PTZ-R; assay: as above; format: cell-based; conditions: Acinetobacter baumannii, PT8321PTZR, Cefepime + 4 ug/ml Compound 2, read-out: MIC
Method: as §1

[12] = tested on: E. coli ATCC 25922 (none); assay: MIC microbroth dilution; β-lactamase class none; format: cell-based; conditions: Escherichia coli, ATCC25922, E. coli ATCC 25922; Cefepime + 4 ug/ml Compound 2; read-out: MIC
Method: as §1

E. coli GC 2844 (none) = assay: MIC microbroth dilution; β-lactamase class none; format: cell-based; conditions: Escherichia coli, Cefepime + 4 ug/ml Compound 2, read-out: MIC
Method: as §1

E. coli GC 2804 (imp) = assay: MIC microbroth dilution; β-lactamase class none; format: cell-based; conditions: Escherichia coli, Cefepime + 4 ug/ml Compound 2
Method: as §1

E. coli GC 2847 (TEM-1) = assay: MIC microbroth dilution; β-lactamase class A; format: cell-based; conditions: Escherichia coli, Cefepime + 4 ug/ml Compound 2, read-out: MIC
Method: as §1

[13] = tested on: C. freundii GC 4171 TEM-1 + InducibleAmpC; assay: MIC microbroth dilution; β-lactamase class A, C; format: cell-based; conditions: Citrobacter freundii
Method: as §1

[14] = tested on: E. coli GC 4971 OXA-1, TEM-1; assay: MIC microbroth dilution; β-lactamase class A, D; format: cell-based; conditions: Escherichia coli, Cefepime + 4 ug/ml Compound 2, read-out: MIC
Method: as §1

[15] = tested on: E. aerogenes GC 7036 TEM-24, Amp C inducable; assay: MIC microbroth dilution; β-lactamase class A (ESBL), C; format: cell-based; conditions: Klebsiella aerogenes, Cefepime + 4 ug/ml Compound 2, read-out: MIC
Method: as §1

[16] = tested on: M. morganii GC 1617 TEM-10 + inducible AmpC; assay: as above; format: cell-based; conditions: Morganella morganii, Cefepime + 4 ug/ml Compound 2, read-out: MIC
Method: as §1

[17] = tested on: E. cloacae GC 7052 SHV-5, Amp C inducable; assay: as above; format: cell-based; conditions: Enterobacter cloacae, Cefepime + 4 ug/ml Compound 2, read-out: MIC
Method: as §1

[18] = tested on: E. cloacae GC 7065 TEM-26, SHV-12 Amp C inducable; assay: as above; format: cell-based; conditions: Enterobacter cloacae, Cefepime + 4 ug/ml Compound 2, read-out: MIC
Method: as §1

[19] = tested on: E. aerogenes GC 7039 TEM-4, Amp C inducable; assay: as above; format: cell-based; conditions: Klebsiella aerogenes, Cefepime + 4 ug/ml Compound 2, read-out: MIC
Method: as §1

E. coli GC 1684 (TEM-10) = assay: MIC microbroth dilution; β-lactamase class A (ESBL); format: cell-based; conditions: Escherichia coli, Cefepime + 4 ug/ml Compound 2, read-out: MIC
Method: as §1

E. coli GC 2400 (TEM-43) = assay: as above; format: cell-based; conditions: Escherichia coli, Cefepime + 4 ug/ml Compound 2, read-out: MIC
Method: as §1

E. coli GC 1995 (TEM-10) = assay: as above; format: cell-based; conditions: Escherichia coli, Cefepime + 4 ug/ml Compound 2, read-out: MIC
Method: as §1

E. coli GC 2300 (TEM-28) = assay: as above; format: cell-based; conditions: Escherichia coli, Cefepime + 4 ug/ml Compound 2, read-out: MIC
Method: as §1

E. coli GC 6368 (SHV-7) = assay: as above; format: cell-based; conditions: Escherichia coli, Cefepime + 4 ug/ml Compound 2, read-out: MIC
Method: as §1

[20] = tested on: S. typhimurium GC 4197 CTX-M-5; assay: as above; format: cell-based; conditions: Salmonella enterica, Cefepime + 4 ug/ml Compound 2, read-out: MIC
Method: as §1

[21] = tested on: E. coli GC 2017 (TEM-10 + pl 6.3; 8.1); assay: as above; format: cell-based; conditions: Escherichia coli, Cefepime + 4 ug/ml Compound 2, read-out: MIC
Method: as §1

[22] = tested on: P. aeruginosa PT 8411 PTZ-R; assay: MIC microbroth dilution; format: cell-based; conditions: Pseudomonas aeruginosa, PT8411PTZR, Cefepime + 4 ug/ml Compound 2, read-out: MIC
Method: as §1

[23] = tested on: P. aeruginosa PT 8503 PTZ-R; assay: MIC microbroth dilution; format: cell-based; conditions: Pseudomonas aeruginosa, PT8503PTZR, Cefepime + 4 ug/ml Compound 2, read-out: MIC
Method: as §1

[24] = tested on: P. aeruginosa PT 9587 PTZ-R; assay: MIC microbroth dilution; format: cell-based; conditions: Pseudomonas aeruginosa, PT9587PTZR, Cefepime + 4 ug/ml Compound 2, read-out: MIC
Method: as §1

[25] = tested on: P. aeruginosa PT 9236 PTZ-R; assay: MIC microbroth dilution; format: cell-based; conditions: Pseudomonas aeruginosa, PT9236PTZR, Cefepime + 4 ug/ml Compound 2, read-out: MIC
Method: as §1

[26] = tested on: K. pn GC 2391 (pl 5.4; 5.6; 7.6; 8.7 B-lactamases); assay: MIC microbroth dilution; β-lactamase class A, A (ESBL), C; format: cell-based, K. pneumoniae; conditions: Klebsiella pneumoniae, Cefepime + 4 ug/ml Compound 2, read-out: MIC
Method: as §1

[27] = tested on: K. pneumoniae GC 7632 TEM-1 KPC-2, SHV-7, SHV-12; assay: MIC microbroth dilution; β-lactamase class A, A (Cb'ase), A (ESBL); format: cell-based; conditions: Klebsiella pneumoniae, Cefepime + 4 ug/ml Compound 2, read-out: MIC
Method: as §1

## O=C(O)C1=CS[C@@H]2/C(=C\c3cn4c(n3)COCC4)C(=O)N12 [Compound 2, (5R), (6Z)-6-(5,6-Dihydro-8H-imidazo[2.1-c][1,4]oxazin-2-ylmethylene)-7-oxo-4-thia-1-azabicyclo[3.2.0]hept-2-ene-2-carboxylic Acid, Sodium Salt]
[1]
  MIC: 0.06 µg/mL
[2]
  MIC: 0.12 µg/mL
[3]
  MIC: 0.25 µg/mL
[4]
  MIC: 0.12 µg/mL
[5]
  MIC: 0.03 µg/mL
[6]
  MIC: 1 µg/mL
[7]
  MIC: 0.03 µg/mL
[8]
  MIC: 0.12 µg/mL
[9]
  MIC: 2 µg/mL
[10]
  MIC: 16 µg/mL
[11]
  MIC: > 16 µg/mL
[12]
  MIC: 0.06 µg/mL
E. coli GC 2844 (none)
  MIC: 0.06 µg/mL
E. coli GC 2804 (imp)
  MIC: < 0.015 µg/mL
E. coli GC 2847 (TEM-1)
  MIC: 0.06 µg/mL
[13]
  MIC: 0.06 µg/mL
[14]
  MIC: 0.12 µg/mL
[15]
  MIC: 0.06 µg/mL
[16]
  MIC: 0.12 µg/mL
[17]
  MIC: 1 µg/mL
[18]
  MIC: 0.06 µg/mL
[19]
  MIC: 0.06 µg/mL
E. coli GC 1684 (TEM-10)
  MIC: 0.06 µg/mL
E. coli GC 2400 (TEM-43)
  MIC: 0.5 µg/mL
E. coli GC 1995 (TEM-10)
  MIC: 0.03 µg/mL
E. coli GC 2300 (TEM-28)
  MIC: 0.25 µg/mL
E. coli GC 6368 (SHV-7)
  MIC: 0.06 µg/mL
[20]
  MIC: 0.25 µg/mL
[21]
  MIC: 0.06 µg/mL
[22]
  MIC: 4 µg/mL
[23]
  MIC: 2 µg/mL
[24]
  MIC: 2 µg/mL
[25]
  MIC: 16 µg/mL
[26]
  MIC: 0.5 µg/mL
[27]
  MIC: > 16 µg/mL
